In EP1272854B1, “METHOD FOR DETECTING A HORMONE DISRUPTING ACTIVITY OF ENVIRONMENTAL POLLUTANTS” (Meulenberg, Petronella Mariette Maria, priority 2000, dated 2001):

Assays:
[1] = tested on: SHBG (Sex Hormone Binding Globulin) from serum of pregnant volunteers; assay: SHBG assay: competitive displacement of tritiated oestradiol from antibody-captured SHBG on microtiter plate; design: species or system human; details: for displacement of oestradiol / affinity to SHBG (in words): discussion of the SHBG assay results; for Activity (score for the displacement of tritiated oestradiol): displacement of 3H-oestradiol from SHBG, related to testosterone standard curve
Source text: Sub figure 1a: HPAA = Hypothalamus-Pituitary-Adrenal-Axis; CRH = Corticotrophin Releasing Hormone; ACTH = Adrenocorticotrophic Hormone; Adrenal = adrenal gland. Sub figure 1b: HPTeA = Hypothalamus-Pituitary-Testis-Axis; LHRH = Luteinizing Hormone Releasing Hormone; LH = Luteinizing Hormone. […] The values are the averages of 11 measurements. […] Plotted out is the bound fraction as a percentage of the total quantity of added ^3H-E2 against the concentration of the test compound.
The SHBG assay was developed for detecting a possible oestrogenic activity of xenobiotic substances. As main component use was made of SHBG from serum of pregnant volunteers in the third trimester of pregnancy. Additionally use was made of commercially available polyclonal anti-SHBG antibody (DAKO) to isolate SHBG from serum on a microtiter plate. […] As standard testosterone (Sigma-Aldrich B.V., Zwijndrecht, the Netherlands) was used in a concentration series.
All compounds to be analyzed are related to the testosterone standard curve. For the analysis of an oestrogenic effect various compounds were tested in the SHBG assay, including endogenous steroids, pharmaceutical substances, pesticides and industrial waste products (alkyl phenols). […]

SHBG (post partum serum) = details: competition with 3H-5-alpha-DHT; cited from earlier work
SHBG = details: cited from earlier work

| Compound | displacement of oestradiol / affinity to SHBG (in words) [1] | Activity (score for the displacement of tritiated oestradiol) [1] | binding to SHBG (SHBG (post partum serum)) | also measured |
| --- | --- | --- | --- | --- |
| CC1(C)C(C=C(Cl)Cl)C1C(=O)OCc1cccc(Oc2ccccc2)c1 (centres unmarked) [Permethrin] | clear displacement | + + (strong displacement) | – | – |
| CCCCC(O)(Cn1cncn1)c1ccc(Cl)cc1Cl (centres unmarked) [Hexaconazole] | ambiguous result | +/- | – | – |
| Oc1c(Cl)c(Cl)c(Cl)c(Cl)c1Cl [pentachlorophenol] | – | – | showed binding | – |
| CC(C)(C)C(O)(CCc1ccc(Cl)cc1)Cn1cncn1 (centres unmarked) [Tebuconazole] | ambiguous result | +/- | – | – |
| C=CC1(C)OC(=O)N(c2cc(Cl)cc(Cl)c2)C1=O (centres unmarked) [Vinclozolin] | – | + (moderate displacement) | – | – |
| CCNc1nc(Cl)nc(NCC)n1 [Simazine] | ambiguous result | + /- | – | – |
| Clc1ccc(C(c2ccccc2Cl)C(Cl)(Cl)Cl)cc1 (centres unmarked) [o,p'-DDT] | – | – | showed binding | – |
| COc1ccc(C(c2ccc(OC)cc2)C(Cl)(Cl)Cl)cc1 [methoxychlor] | – | – | not found | – |
| C[C@H]1C[C@@H]2[C@H]([C@@H](O)C[C@@]3(C)[C@H]2CC[C@]3(O)C(=O)CO)[C@@]2(C)C=CC(=O)C=C12 [6-alpha-methylprednisolone, reference compound] | – | + (moderate displacement) | – | – |
| C[C@]12CC[C@@H](O)C[C@@H]1CC[C@@H]1[C@@H]2CC[C@]2(C)C(=O)CC[C@@H]12 [Andosterone, reference compound] | – | + (moderate displacement) | – | – |
| C[C@]12CC[C@@H]3c4ccc(O)cc4CC[C@H]3[C@@H]1CC[C@@H]2O [Oestradiol] | – | – | – | affinity for SHBG (SHBG; association constant, see Dunn et al. 1981): 7e-10 M⁻¹ |
| C[C@]12CC[C@H]3[C@@H](CCC4=CC(=O)CC[C@@]43C)[C@@H]1CC[C@@H]2O [Testosterone] | – | + + (strong displacement) | – | Kd (SHBG; see Dunn et al. 1981, read-out: affinity for SHBG (converted)): 62.5 nM; affinity to SHBG relative to oestradiol (SHBG; testosterone versus oestradiol): approximately 3 times |
| O=C(O)CNCP(=O)(O)O [Glyphosate] | ambiguous result | +/- | – | – |
| Nonylphenol | remarkably strong effect | + + (strong displacement) | showed binding | – |
| ClC1=C(Cl)[C@]2(Cl)[C@@H]3[C@@H]4C[C@@H]([C@H]5O[C@@H]45)[C@@H]3[C@@]1(Cl)C2(Cl)Cl [dieldrin] | – | – | not found | – |
| CN(C)S(=O)(=O)N(SC(F)(Cl)Cl)c1ccccc1 [Dichlofluanide] | – | + (moderate displacement) | – | – |
| C#CC1(O)CC[C@H]2[C@@H]3CCC4=CC(=O)CC[C@@H]4[C@H]3CC[C@@]21CC (mixture of isomers) [Norgestrel, reference compound] | high affinity | + + (strong displacement) | – | – |
| CCOC(=O)CC(SP(=S)(OC)OC)C(=O)OCC (centres unmarked) [Malathion] | – | + (moderate displacement) | – | – |
| CCNc1nc(Cl)nc(NC(C)C)n1 [Atrazine] | no activity at all | - (no displacement) | not found | – |
| CNC(=O)O/N=C/C(C)(C)SC [Aldicarb] | ambiguous result | +/- | – | – |
| ClC(Cl)=C(c1ccc(Cl)cc1)c1ccc(Cl)cc1 [p,p'-DDE] | – | – | not found | – |
| CC/C(=C(/CC)c1ccc(O)cc1)c1ccc(O)cc1 [DES, reference compound] | high affinity | + + (strong displacement) | – | – |
| O=C(O)COc1ccc(Cl)cc1Cl [2.4-D] | – | + (moderate displacement) | – | – |
| Clc1ccc(C(c2ccc(Cl)cc2)C(Cl)(Cl)Cl)cc1 [p,p'-DDT] | – | – | not found | – |
| CC(C)(c1ccc(O)cc1)c1ccc(O)cc1 [Bisphenol-A] | remarkably strong effect | + + (strong displacement) | – | – |
| C[C@]12CC[C@H](O)CC1=CC[C@@H]1[C@@H]2CC[C@]2(C)C(=O)CC[C@@H]12 [Dehydro-iso-andosterone, reference compound] | – | + (moderate displacement) | – | – |
